Data taken from patent US11414395B2, “Heterocyclic compounds as modulators of mGluR7” (PRAGMA Therapeutics, priority 2017, dated 2022).

Target: human mGluR7 (Homo sapiens (Human), UniProt Q14831)
Assay: Inositol monophosphate production assay (IP1 assay), inhibition of L-AP4 response
Type: cell-based
Conditions: mean IC50 from at least two independent experiments; HEK293 cells transiently transfected with mGluR7, Gqtop and EAAC1; IP1 production vs EC80 L-AP4
Source text: Inositol Monophosphate Production Assay (IP1 Assay):
HEK293 cells were transiently transfected with mGluR7 by electroporation and seeded in a poly-ornithine coated 96-well plate at the density of 150 000 cells/well. To allow the monitoring of receptor activity through measurements of inositol monophosphate (IP1) production, mGluR7 was transfected with a chimeric Gq/Gi protein (Gqtop). and was also co-transfected with EAAC1, a glutamate transporter, to avoid influence of extracellular glutamate. Cells were cultured in Dulbecco's Modified Eagle Medium (DMEM, Invitrogen, Cergy Pontoise, France), supplemented with 10% of Fetal Bovine Serum (FBS). Medium was changed by Glutamax™ (Invitrogen, Cergy Pontoise, France) to reduce extracellular glutamate concentration 3 hours before stimulation
IP1 production was determined using the IP-One HTRF kit (CisBio Bioassays), a competitive immunoassay using cryptate-labeled anti-IP1 antibody and d2-labeled IP, according to the manufacturer's recommendations. All points were realized in triplicate.
Data were analyzed with Prism 6 software (GraphPadSoftware, San Diego, Calif.). Typically, in each experiment, a four-parameter concentration-response curve equation was used to fit data and potency (IC50) is estimated as logarithms (log IC50). Data were calculated as % of the control mGluR7 agonist L-AP4 response, defined as the response that is generated upon addition of an EC80-equivalent concentration of L-AP4.
The Table 2 below represents the mean IC50 obtained from at least two independent experiments.

Chain of human mGluR7 (Q14831 35-915): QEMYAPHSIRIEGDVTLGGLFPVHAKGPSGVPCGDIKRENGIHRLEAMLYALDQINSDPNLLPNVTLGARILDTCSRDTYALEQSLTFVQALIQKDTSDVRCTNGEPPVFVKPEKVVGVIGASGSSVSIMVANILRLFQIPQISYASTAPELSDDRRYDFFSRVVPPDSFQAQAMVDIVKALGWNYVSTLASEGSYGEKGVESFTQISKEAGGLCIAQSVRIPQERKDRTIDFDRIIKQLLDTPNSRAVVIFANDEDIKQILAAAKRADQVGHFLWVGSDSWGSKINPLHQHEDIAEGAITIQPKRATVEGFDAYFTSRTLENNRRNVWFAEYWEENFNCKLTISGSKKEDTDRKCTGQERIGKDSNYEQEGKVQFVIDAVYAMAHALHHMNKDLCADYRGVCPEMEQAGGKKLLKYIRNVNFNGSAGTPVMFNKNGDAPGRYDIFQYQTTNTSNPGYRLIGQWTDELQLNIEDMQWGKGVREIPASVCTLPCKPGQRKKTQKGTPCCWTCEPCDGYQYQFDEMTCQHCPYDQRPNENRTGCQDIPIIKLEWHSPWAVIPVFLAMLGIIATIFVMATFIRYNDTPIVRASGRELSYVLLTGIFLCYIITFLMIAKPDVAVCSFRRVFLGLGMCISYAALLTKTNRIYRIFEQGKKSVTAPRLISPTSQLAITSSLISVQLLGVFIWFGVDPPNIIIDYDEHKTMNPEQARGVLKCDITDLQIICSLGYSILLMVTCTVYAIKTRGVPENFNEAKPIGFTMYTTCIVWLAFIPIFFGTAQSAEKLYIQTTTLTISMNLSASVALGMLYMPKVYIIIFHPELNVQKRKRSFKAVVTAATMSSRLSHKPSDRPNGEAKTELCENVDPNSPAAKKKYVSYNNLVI

Cc1ccc(C2CCc3c(cnn(-c4ccc(C#N)cn4)c3=O)C2)c(C)c1 (stereo not shown) [Example 22, 6-(6-(2,4-dimethylphenyl)-1-oxo-5,6,7,8-tetrahydrophthalazin-2(1H)-yl)nicotinonitrile]
IC50: < 500 nM

Cc1c(OC2CC2)cccc1C1CCc2c(cnn(-c3ncccn3)c2=O)C1 (single isomer, unassigned; (+)) [Example 129, (+)-6-(3-cyclopropoxy-2-methylphenyl)-2-(pyrimidin-2-yl)-5,6,7,8-tetrahydrophthalazin-1(2H)-one]
IC50: 500 to 1000 nM

O=c1c2c(cnn1-c1ncccn1)CC(c1cccc3c1CCN3C1CC1)CC2 (stereo not shown) [Example 92, 6-(1-cyclopropylindolin-4-yl)-2-(pyrimidin-2-yl)-5,6,7,8-tetrahydrophthalazin-1(2H)-one]
IC50: < 500 nM

Cc1ccc(C2CCc3c(cnn(-c4cscn4)c3=O)C2)c(C)c1 (stereo not shown) [Example 33, 6-(2,4-dimethylphenyl)-2-(thiazol-4-yl)-5,6,7,8-tetrahydrophthalazin-1(2H)-one]
IC50: < 500 nM

Cc1ccc(C2CCc3c(cnn(-c4ccncc4)c3=O)C2)c(C)c1 (stereo not shown) [Example 50, 6-(2,4-dimethylphenyl)-2-(pyridin-4-yl)-5,6,7,8-tetrahydrophthalazin-1(2H)-one]
IC50: < 500 nM

COc1cccc(C2CCc3c(cnn(-c4ccc(C5CC5)cn4)c3=O)C2)c1C (stereo not shown) [Example 110, 2-(5-cyclopropylpyridin-2-yl)-6-(3-methoxy-2-methylphenyl)-5,6,7,8-tetrahydrophthalazin-1(2H)-one]
IC50: < 500 nM

COc1cccc(C2CCc3c(cnn(-c4ccc(CO)cn4)c3=O)C2)c1C (stereo not shown) [Example 39, 2-(5-(hydroxymethyl)pyridin-2-yl)-6-(3-methoxy-2-methylphenyl)-5,6,7,8-tetrahydrophthalazin-1(2H)-one]
IC50: < 500 nM

COc1ccc(C2CCc3c(cnn(-c4ncccn4)c3=O)C2)c(C)c1 (stereo not shown) [Example 87, 6-(4-methoxy-2-methylphenyl)-2-(pyrimidin-2-yl)-5,6,7,8-tetrahydrophthalazin-1(2H)-one]
IC50: < 500 nM

O=c1c2c(cnn1-c1ncccn1)CC(c1cccc(OC3CC3)c1Cl)CC2 (stereo not shown) [Example 91, 6-(2-chloro-3-cyclopropoxyphenyl)-2-(pyrimidin-2-yl)-5,6,7,8-tetrahydrophthalazin-1(2H)-one]
IC50: < 500 nM

O=c1c2c(cnn1-c1ncccn1)CC(c1cccc(OC3CC3)c1Cl)CC2 (single isomer, unassigned; (+)) [Example 131, (+)-6-(2-chloro-3-cyclopropoxyphenyl)-2-(pyrimidin-2-yl)-5,6,7,8-tetrahydrophthalazin-1(2H)-one]
IC50: < 500 nM

Cc1c(OC2CC2)cccc1C1CCc2c(cnn(-c3ncccn3)c2=O)C1 (stereo not shown) [Example 104, 6-(3-cyclopropoxy-2-methylphenyl)-2-(pyrimidin-2-yl)-5,6,7,8-tetrahydrophthalazin-1(2H)-one]
IC50: < 500 nM

O=c1c2c(cnn1-c1ncccn1)CC(c1cccc(OC3CC3)c1)CC2 (stereo not shown) [Example 85, 6-(3-cyclopropoxyphenyl)-2-(pyrimidin-2-yl)-5,6,7,8-tetrahydrophthalazin-1(2H)-one]
IC50: < 500 nM

COCc1ccc(-n2ncc3c(c2=O)CCC(c2ccc(C)cc2C)C3)nc1 (stereo not shown) [Example 27, 6-(2,4-dimethylphenyl)-2-(5-(methoxymethyl)pyridin-2-yl)-5,6,7,8-tetrahydrophthalazin-1(2H)-one]
IC50: < 500 nM

Cc1cnc(-n2ncc3c(c2=O)CCC(c2ccc(C)cc2C)C3)nc1 (stereo not shown) [Example 52, 6-(2,4-dimethylphenyl)-2-(5-methylpyrimidin-2-yl)-5,6,7,8-tetrahydrophthalazin-1(2H)-one]
IC50: < 500 nM

O=c1c2c(cnn1-c1ncccn1)CC(c1cccc3c1ccn3C1CC1)CC2 (stereo not shown) [Example 124, 6-(1-cyclopropyl-1H-indol-4-yl)-2-(pyrimidin-2-yl)-5,6,7,8-tetrahydrophthalazin-1(2H)-one]
IC50: < 500 nM

Cc1ccc(C2CCc3c(cnn(-c4ccccn4)c3=O)C2)c(C)c1 (stereo not shown) [Example 1, 6-(2,4-dimethyl-phenyl)-2-pyridin-2-yl-5,6,7,8-tetrahydro-2H-phthalazin-1-one]
IC50: < 500 nM

CN(C)c1cccc(C2CCc3c(cnn(-c4ccccn4)c3=O)C2)c1 (stereo not shown) [Example 59, 6-(3-(dimethylamino)phenyl)-2-(pyridin-2-yl)-5,6,7,8-tetrahydrophthalazin-1(2H)-one]
IC50: < 500 nM

Cc1ccc(C2CCc3c(cnn(-c4ncc(N5CCOCC5)cn4)c3=O)C2)c(C)c1 (stereo not shown) [Example 115, 6-(2,4-dimethylphenyl)-2-(5-morpholinopyrimidin-2-yl)-5,6,7,8-tetrahydrophthalazin-1(2H)-one]
IC50: < 500 nM

Cc1ccc(C2CCc3c(cnn(-c4ncc(C5CC5)cn4)c3=O)C2)c(C)c1 (stereo not shown) [Example 109, 2-(5-cyclopropylpyrimidin-2-yl)-6-(2,4-dimethylphenyl)-5,6,7,8-tetrahydrophthalazin-1(2H)-one]
IC50: < 500 nM

Cc1ccc(C2CCc3c(cnn(-c4nccc(C5CC5)n4)c3=O)C2)c(C)c1 (stereo not shown) [Example 37, 2-(4-cyclopropylpyrimidin-2-yl)-6-(2,4-dimethylphenyl)-5,6,7,8-tetrahydrophthalazin-1(2H)-one]
IC50: < 500 nM

CC(O)c1cccc(C2CCc3c(cnn(-c4ccccn4)c3=O)C2)c1 (stereo not shown) [Example 65, 6-(3-(1-hydroxyethyl)phenyl)-2-(pyridin-2-yl)-5,6,7,8-tetrahydrophthalazin-1(2H)-one]
IC50: 500 to 1000 nM

CC(=O)Nc1cnc(-n2ncc3c(c2=O)CCC(c2ccc(C)cc2C)C3)nc1 (single isomer, unassigned; (-)) [Example 136, (−)-N-(2-(6-(2,4-dimethylphenyl)-1-oxo-5,6,7,8-tetrahydrophthalazin-2(1H)-yl)pyrimidin-5-yl)acetamide]
IC50: 1000 to 30000 nM

COc1nc(-n2ncc3c(c2=O)CCC(c2ccc(C)cc2C)C3)ncc1C (stereo not shown) [Example 56, 6-(2,4-dimethylphenyl)-2-(4-methoxy-5-methylpyrimidin-2-yl)-5,6,7,8-tetrahydrophthalazin-1(2H)-one]
IC50: < 500 nM

COCCOc1cccc(C2CCc3c(cnn(-c4ncccn4)c3=O)C2)c1C (stereo not shown) [Example 105, 6-(3-(2-methoxyethoxy)-2-methylphenyl)-2-(pyrimidin-2-yl)-5,6,7,8-tetrahydrophthalazin-1(2H)-one]
IC50: 1000 to 30000 nM

COc1c(C)cccc1C1CCc2c(cnn(-c3ccccn3)c2=O)C1 (stereo not shown) [Example 68, 6-(2-methoxy-3-methylphenyl)-2-(pyridin-2-yl)-5,6,7,8-tetrahydrophthalazin-1(2H)-one]
IC50: 500 to 1000 nM

CCOc1cccc(C2CCc3c(cnn(-c4ncccn4)c3=O)C2)c1C (stereo not shown) [Example 101, 6-(3-ethoxy-2-methylphenyl)-2-(pyrimidin-2-yl)-5,6,7,8-tetrahydrophthalazin-1(2H)-one]
IC50: < 500 nM

Cc1ccc(C2CCc3c(cnn(-c4ccccn4)c3=O)C2)c(C)c1 (single isomer, unassigned; (+)) [Example 5, (+)-6-(2,4-dimethyl-phenyl)-2-pyridin-2-yl-5,6,7,8-tetrahydro-2H-phthalazin-1-one]
IC50: < 500 nM

Cc1ccc(C2CCc3c(cnn(-c4ccc(C5CC5)cn4)c3=O)C2)c(C)c1 (stereo not shown) [Example 108, 2-(5-cyclopropylpyridin-2-yl)-6-(2,4-dimethylphenyl)-5,6,7,8-tetrahydrophthalazin-1(2H)-one]
IC50: < 500 nM
